In brackets after ≈: the same amount, converted by molar mass.
Assays:
Fungi stains = experiment: Minimum fungicidal concentration (MFC), positive control, strain not stated; assay type: cell-based
Method: Minimum fungicidal concentration (MFC) was determined according to Zinsou et al., “Development of new dermatological formulations for the treatment of cutaneous candidiasis”, Scientific African (2020), 8:e00342. Different final concentrations (0.1 to 1 mg/mL) of the bark essential oils were dissolved in DEMO and added to liquid Sabouraud dextrose broth. From the above fungal stain suspension, 1 mL was added to each essential oil tube. The tubes were incubated at room temperature for three days. Negative and positive controls were made through the addition of an equivalent amount of DMSO and Ketoconazole, respectively. MFC was calculated through the determination of the lowest concentration of the essential oil, which could inhibit the growth of the fungus. Every concentration was repeated 5 times in three different experiments, and the mean and SD of inhibition zones were calculated for each fungal strain. The MIC was determined as the lowest concentration of essential oil that inhibited fungal growth after 48 h.

C. albicans = experiment: In vivo topical fungal infection of burn wounds in Wistar rats; conditions: for percentage of fungicidal activity (wound fungal load): FIG. 5
Method: The development of in vivo topical fungal infection was determined according to Zinsou, A. et al., “Development of new dermatological formulations for the treatment of cutaneous candidiasis”, Scientific African (2020):8:e00342, and modified Ray and Wuepper, “Experimental Cutaneous Candidiasis in Rodents: II. Role of the Stratum Corneum Barrier and Serum Complement as a Mediator of a Protective Inflammatory Response”, Archives of Dermatology (1978), Vol. 114(4): 539-43. The experimental protocol was permitted by the Institutional Animal Care and Use Committee of King Faisal University (KFU-REC-2023-JAN-EA000691). All the experiments were executed in harmony with the relevant procedures and regulations of the Ethical Conduct for the Use of Animals in Research at King Faisal University. Wistar rats weighing (220±30 g) were used for the whole experiment. The animals' backs were shaved after anesthesia, and sterilized with 70% ethyl alcohol in water and left to dry. The injury was induced on the shaven back of each rat using a hot copper metal rod. The injury was swabbed with 0.5 mL broth containing […] Colony-Forming Units (CFU) of C. albicans. The essential oil topical preparations were applied once daily, starting from day 3, directly on the infected wound until the wound was completely healed (nearly 20 days). No antibiotic or antifungal preparations were administered to any of the animal groups, and the animals were monitored daily for any wound contamination. The animals' wounds were covered by sterile wound plaster, which is changed every day. […]
The animals' infected wounds (lesions) were monitored according to Masoko, et al., “In vivo antifungal effect of Combretum and Terminalia species extracts on cutaneous wound healing in immunosuppressed rats”, Pharm Biol (2010): 48:6:621-32, and Sullivan, et al., “Assessment of wound bioburden development in a rat acute wound model: Quantitative swab versus tissue biopsy”, Wounds (2004): 16: 115-123, using the following parameters: (1) Presence and type of exudate, erythema, swelling, ulceration, and crust formation: The scoring of the lesions regarding the exudate was measured using the following criteria: 0: No exudate, 1: Exudate just visible, 2: Exudate easily visible, 3: Substantial quantity of exudate, 4: Large quantity of exudate; (2) Wound contraction percentage: The lesion diameters were determined in millimeters (mm) vertically and horizontally. The lesion size percentage was calculated using the below equation: Wound contraction percentage=((Wound area day 0-Wound area day X)/Wound area day 0)×100, where X represents the number of days;
(3) Epithelialization time: The number of days needed for the wound Escher to fade away, leaving no visible wound, was used to determine the epithelialization period. (4) Evaluation of wound fungal load was determined according to Sullivan et al., supra: At the 3rd, 10th, and 15 days, each lesion was gently swabbed by a sterile swab 3 times anticlockwise with mild pressure. […] The plates were incubated for 48 hours at 37° C., and the number of yeasts on each plate was manually counted. […]

**Q.** For CC(=O)N1CCN(c2ccc(OCC3COC(Cn4ccnc4)(c4ccc(Cl)cc4Cl)O3)cc2)CC1 (stereo not drawn) [Ketoconazole], which MFC (Fungi stains) is on record?
**A.** 0.037 µg/mL (≈ 0.0696 µM)

**Q.** What about the “reduction of wound exudate related to the non-treatment lesions” value (C. albicans; AUC of exudate score, FIG. 2B, topical once daily from day 3) of the same molecule?
**A.** 58%

**Q.** What about the “reduction of epithelization time related to the untreated infected wound” value (C. albicans; FIG. 4) of the same molecule?
**A.** 42%

**Q.** And the wound contraction percentage (C. albicans; by day 21, FIG. 3)?
**A.** 100%

**Q.** What about the “percentage of fungicidal activity (wound fungal load)” value (C. albicans; day 5, related to the untreated-infected wound) of the same molecule?
**A.** 45.85%

**Q.** What about the “percentage of fungicidal activity (wound fungal load)” value (C. albicans; day 15, related to the untreated-infected wound) of the same molecule?
**A.** 98.58%
